Assay results published in US10548883B2, “Benzotriazole-derived α and β-unsaturated amide compound used as TGF-β RI inhibitor” (GENFLEET THERAPEUTICS (SHANGHAI) INC., priority 2016, dated 2020).

Tested on: mouse breast cancer 4T1 cells
Test: Tumor cell metastasis inhibition in BALB/c mouse orthotopic transplantation model of mouse breast cancer 4T1 cells
Format: in vivo
Conditions: 75 mg/kg PO once a day × 32
Protocol: Fluorescently labeled mouse breast cancer 4T1-Luc cells were expanded in vitro. Before the cells were collected, the mice were anesthetized with intraperitoneal injection of sodium pentobarbital. After anesthetized mice were fixed, the abdominal skin was disinfected with 70% alcohol. 100 uL of phosphate buffer (containing 0.5×10^6 4T1-luc2 cells) was inoculated into the left side of the fourth pair of abdominal mammary fat pads in mice, and the incision was sutured to disinfect the skin. The animals are kept warm with a warm blanket, observed until they wake up and put back in their cages. 0.1 mg/kg buprenorphine for pain relief was subcutaneously injected 30 min before surgery and 6 hours after surgery.
On the third day after modeling, the animals were subjected to bioluminescence detection by infrared data imaging, randomly grouped according to the fluorescence values, and administered according to the following experimental protocol, see Table 5.
To observe the inhibitory effect of embodiment 1 on tumor growth and metastasis, the experimental endpoint was designed to be 30-35 days after administration, with reference to historical data of the model. At the end of the experiment, the in situ tumor and various organ tissues were dissected, the tumor was weighed, and the fluorescence intensity of each organ was detected by IVIS fluorescence. Growth inhibition of orthotopic tumors can be compared by the weight of the in situ tumor in the experimental endpoint, and the inhibition curve is generated from the tumor volume measurement data twice a week during the experiment. The inhibition of tumor metastasis was determined by the presence or absence of fluorescence detection of each organ and the analysis of relative fluorescence intensity.
At the end of the experiment, the tumor weight will be detected and the relative tumor growth rate T/C (%) will be calculated; the tumor volume is calculated as: V=0.5a×b^2, and a and b represent the long and short diameters of the tumor, respectively. At the same time, the lung, liver, spleen, kidney, intestine and left upper limb were stripped, and fluorescence was detected to determine whether there was metastasis and metastasis intensity and ratio.
The antitumor effect of the compound was evaluated by the tumor growth inhibition rate TGI (%) or the relative tumor growth rate T/C (%).
Calculation of TGI (%): TGI (%)=[(1−mean tumor volume at the end of administration of a treatment group−mean tumor volume at the start of administration of the treatment group))/(mean tumor volume at the end of treatment of the solvent control group−mean tumor volume at the start of administration of the solvent control group)]×100%.
Relative tumor growth rate T/C (%) calculation: T/C(%)=Tt(treatment group)/Ct(control group)×100%, Tt is the average tumor volume at a certain measurement, and Ct takes the same day data.
The experimental results were statistically analyzed using one-way ANOVA. If there is a significant difference in F values, multiple comparisons should be made after ANOVA analysis. All data in this experiment were analyzed using SPSS 17.0. A significant difference was considered at p<0.05.
At the end of the experiment, each organ tissue was peeled off, and fluorescence imaging and fluorescence intensity value recording were measured by IVIS for 40 sec exposure within 8 min. The fluorescence imaging results of the tested tissues of the 10 animals excised by the maximum and minimum values are shown in Table 6.
According to the experimental end point, the fluorescence intensity of each group of organs was normalized by the control group, and the relative fluorescence intensity ratio of each group of organs was obtained. The ratio reflects the level of metastatic intensity on the corresponding organs.

[1] = animals with metastasis/animals in group
[2] = average organ fluorescence relative to control group

Structure (SMILES): Cc1cccc(-c2nn3c(c2-c2ccc4ncnn4c2/C=C/C(N)=O)CCC3)n1 [Embodiment 1]
- Inhibition of metastasis of 4T1 (conclusion): significantly inhibited the metastasis of 4T1 in liver, spleen, kidney and intestine
- Metastasis rate, intestine [1]: 60%
- Metastasis rate, kidney [1]: 20%
- Metastasis rate, liver [1]: 50%
- Metastasis rate, lung [1]: 100%
- Metastasis rate, spleen [1]: 0%
- Metastasis rate, upper limb [1]: 90%
- Metastasis level, intestine [2]: 1%
- Metastasis level, kidney [2]: 67%
- Metastasis level, liver [2]: 10%
- Metastasis level, lung [2]: 9%
- Metastasis level, spleen [2]: 0%
- Metastasis level, upper limb [2]: 12%
